# In US11667961B2, “Intercalating fluorescent dyes for labelling nucleic acids and preparation method thereof” (Bioacts Corporation, priority 2020, dated 2023):
# Entries after “also recorded” stand apart in the source; their conditions may differ.
# How the values were obtained:
# [1] = test system: double-stranded DNA (cDNA extracted from HeLa cells, b-actin primer); assay: Compound analysis through real-time PCR by intercalating method (double-stranded DNA binding dyes); type: biochemical; settings: for fluorescence signal / fluorescence intensity during DNA synthesis (FIG. 1): 1 uL of 200 uM dye in 20 uL reaction, fluorescence wavelength of 497 nm detected; for Cq value (FIG. 3): 45 cycles, HeLa cDNA template
# Description: Compounds 8, 9, 10, 15, 16, and 17 were dissolved in dimethyl sulfoxide to prepare 5 mM of a stock solution. The prepared stock solution was diluted in a Tris-EDTA buffer (pH 7.5) and prepared at a concentration of 200 uM.
# For Reference material 1, 10,000× of the stock solution was diluted to a concentration of 20× through a Tris-EDTA buffer (pH 7.5). For Reference material 2, 20,000× of the stock solution was diluted to a concentration of 20× through a Tris-EDTA buffer (pH 7.5).
# Reference materials 1 (Evagreen) and 2 (Invitrogen Sybr Green) and Compounds 8, 9, 10, 15, 16, and 17 were compared and verified by an intercalating method using a double-stranded DNA binding dyes through real-time PCR. cDNA extracted from HeLa cells was used, and b-actin (Forward 5′-CATCGAGCACGGCATCGTCA-3′, Reverse 5′-TAGCACAGCCTGGATAGCAAC-3′) was used as a primer. Real-time PCR reaction was performed using a CFX96 touch real-time PCR detection system (BIO-RAD). The PCR mixture consisted of a total 20 uL of reaction solution containing 1 uL of a forward primer, 1 uL of a reverse primer, 10 uL of a PCR master mix (TAKARA), 1 uL of a reference material and each compound (Compounds 8, 9, 10, 15, 16, 17), and 1 uL of template cDNA. PCR conditions were as follows: (a) In a pre-denaturing step, 1 minute at 95° C. (b) 45 cycles are configured as a cycle consisting of at 95° C. for 15 seconds, 58° C. for 30 seconds and 72° C. for 30 seconds, and a fluorescence wavelength of 497 nm was detected in a cycle of 30 seconds at 72° C.
# [2] = Stability analysis: storage in incubator at 60° C. for 3 days, then real-time PCR fluorescence; type: physicochemical; settings: for change in fluorescence intensity after reaction at 60° C. for 3 days (FIGS. 11-14): stored in incubator at 60° C. for 3 days, real-time PCR for each template concentration
# Description: Stability analysis was performed by storing Reference materials 1 (Evagreen) and 2 (Invitrogen Sybr Green) and Compound 16 in an incubator at 60° C. The three materials were stored in an incubator at 60° C. for 3 days, and the fluorescence signals for each template concentration were analyzed by real-time PCR analysis as in (1) above, and the PCR product was electrophoresed to analyze whether normal DNA synthesis was achieved. After real-time-PCR, synthetic DNA and a 6× Loading dye (BioActs) were mixed, and then electrophoresis was performed for 35 minutes on a 2% agarose gel (Simga-aldrich).
Compound,fluorescence signal / fluorescence intensity during DNA synthesis (FIG. 1) [1],Cq value (FIG. 3) [1],stability compared with Reference material 2 ([2]; 60° C. for 3 days),change in fluorescence intensity after reaction at 60° C. for 3 days (FIGS. 11-14) [2],Cq value relative to Reference material 1 (FIG. 6) ([1]; compared with Evagreen),fluorescence intensity relative to Reference materials 1 and 2 (FIG. 4) ([1]; compared with Evagreen and Sybr Green at 20×)
CCCCCCCCNC(=O)CCCN(C)C1=C/C(=C\c2oc3ccccc3[n+]2C)c2ccccc2N1c1ccccc1 [Compound 10],not strongly observed,not much confirmed,–,–,–,–
C=CS(=O)(=O)CCNC(=O)CCCN(C)C1=C/C(=C\c2oc3ccccc3[n+]2C)c2ccccc2N1c1ccccc1 [Compound 8],not strongly observed,not much confirmed,–,–,–,–
CCCCCCCCNC(=O)CCCN(C)C1=C/C(=C\c2oc3ccccc3[n+]2C)c2ccccc2N1c1ccccc1 [Compound 17],emit visible fluorescence; also recorded: not much strong,hardly confirmed,–,–,–,–
CN(C)CCCNC(=O)CCCN(C)C1=C/C(=C\c2sc3ccccc3[n+]2C)c2ccccc2N1c1ccccc1 [Compound 16],emit visible fluorescence; also recorded: very strong,fastest,more stable material than Reference material 2,no significant change,faster than that of Reference material 1,two times higher
C=CS(=O)(=O)CCNC(=O)CCCN(C)C1=C/C(=C\c2sc3ccccc3[n+]2C)c2ccccc2N1c1ccccc1 [Compound 15],emit visible fluorescence; also recorded: not much strong,–,–,–,–,–
"CCCN(CCCN(C)C)c1cc(/C=C2/Sc3ccccc3N2C)c2ccccc2[n+]1-c1ccccc1 [Reference material 2, reference compound]",–,–,–,decreased by about half,–,–
CN(C)CCCNC(=O)CCCN(C)C1=C/C(=C\c2oc3ccccc3[n+]2C)c2ccccc2N1c1ccccc1 [Compound 9],not strongly observed,not much confirmed,–,–,–,–
